According to the supplement of paper PMC11061612:

Tests used:
[1] = compound: COc1cc([C@@H]2c3cc4c(cc3[C@@H](O[C@@H]3O[C@@H]5CO[C@@H](C)O[C@H]5[C@H](O)[C@H]3O)[C@H]3COC(=O)[C@H]23)OCO4)cc(OC)c1O [Etoposide]; conditions: max 10 µM
How it was run: (§1)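 Viability was measured with CellTiter-Glo 2.0 luminescence after 72 hours of dosing at a final DMSO of typically 0.2%, and scaled between blank-well and DMSO-well means. Beforehand, cancer cell lines sat 24 hours at 37°C and 5% CO2 in 1536-well plates in 7.5 μl DMEM/F12 or RPMI with 10% FBS. A non-linear mixed effects model fitted two-parameter logistic curves to the dose responses. The single-agent IC50 comes from these fits.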

[2] = compound: CC(C)n1c(=O)n(C)c2cnc3cc(F)c(-c4ccc(OCCCN5CCCCC5)nc4)cc3c21 [AZD1390]; conditions: max 0.3 µM
How it was run: as §1

[3] = compound: O=C(c1cc(Cc2n[nH]c(=O)c3ccccc23)ccc1F)N1CCN(C(=O)C2CC2)CC1 [Olaparib]; conditions: max 10 µM
How it was run: as §1

[4] = compound: N#Cc1cnc(Nc2cc(NC[C@H]3CNCCO3)c(C(F)(F)F)cn2)cn1 [SRA737]; conditions: max 10 µM
How it was run: as §1

[5] = compound: COc1cccc2c1C(=O)c1c(O)c3c(c(O)c1C2=O)C[C@@](O)(C(=O)CO)C[C@@H]3O[C@H]1C[C@H](N)[C@H](O)[C@H](C)O1 [Doxorubicin]; conditions: max 1 µM
How it was run: as §1

[6] = compound: CC(=O)Nc1cccc(-n2c(=O)n(C3CC3)c(=O)c3c(Nc4ccc(I)cc4F)n(C)c(=O)c(C)c32)c1 [Trametinib]; conditions: max 1 µM
How it was run: as §1

[7] = compound: CC1=C(C(=CC=C1)Cl)NC(=O)C2=CN=C(S2)NC3=CC(=NC(=N3)C)N4CCN(CC4)CCO [Dasatinib]; conditions: max 2 µM
How it was run: as §1

[8] = compound: COc1nnc2ccc(N3CCC(c4ccc(OCCN5CCN(C)C(=O)[C@H]5C)cc4)CC3)nn12 [AZD5153]; conditions: max 1 µM
How it was run: as §1

[9] = compound: O=C(Nc1ccc2[nH]nc(-c3ccncc3)c2c1)[C@@H]1CCN(CC(=O)N2CCN(c3ccc(-c4ncccn4)cc3)CC2)C1; conditions: max 5 µM
How it was run: as §1

[10] = compound: C1CN(CCC1(C(=O)N[C@@H](CCO)C2=CC=C(C=C2)Cl)N)C3=NC=NC4=C3C=CN4 [AZD5363]; conditions: max 10 µM
How it was run: as §1

[11] = compound: CC(=O)c1c(C)c2cnc(Nc3ccc(N4CCNCC4)cn3)nc2n(C2CCCC2)c1=O [Palbociclib]; conditions: max 10 µM
How it was run: as §1

[12] = compound: CN(CC[C@H](CSC1=CC=CC=C1)NC2=C(C=C(C=C2)S(=O)(=O)NC(=O)C3=CC=C(C=C3)N4CCC(CC4)[C@H](C5=CC=CC=C5C6=CC=C(C=C6)Cl)O)S(=O)(=O)C(F)(F)F)CCO [AZD4320]; conditions: max 1 µM
How it was run: as §1

[13] = compound: C=CCn1c(=O)c2cnc(Nc3ccc(N4CCN(C)CC4)cc3)nc2n1-c1cccc(C(C)(C)O)n1 [AZD1775]; conditions: max 3 µM
How it was run: as §1

[14] = compound: COc1cccc(OCCCN)c1-c1cc(Nc2cnc(C#N)cn2)n[nH]1 [Prexasertib]; conditions: max 1 µM
How it was run: as §1

[15] = compound: Cc1cc2ncnn2cc1Nc1ncc2c(n1)n(C1CCOCC1)c(=O)n2C [AZD7648]; conditions: max 10 µM
How it was run: as §1

[16] = compound: CC1(C)CCC(CN2CCN(c3ccc(C(=O)NS(=O)(=O)c4ccc(NCC5CCOCC5)c([N+](=O)[O-])c4)c(Oc4cnc5[nH]ccc5c4)c3)CC2)=C(c2ccc(Cl)cc2)C1 [Venetoclax]; conditions: max 1 µM
How it was run: as §1

[17] = compound: CC(=O)O[C@H]1C(=O)[C@@]2(C)[C@H]([C@H](OC(=O)c3ccccc3)[C@]3(O)C[C@H](OC(=O)[C@H](O)[C@@H](NC(=O)c4ccccc4)c4ccccc4)C(C)=C1C3(C)C)[C@]1(OC(C)=O)CO[C@@H]1C[C@@H]2O [Paclitaxel]; conditions: max 3 µM
How it was run: as §1

[18] = compound: Nc1ccn([C@@H]2O[C@H](CO)[C@@H](O)C2(F)F)c(=O)n1 [Gemcitabine]; conditions: max 0.3 µM
How it was run: as §1

[19] = compound: Cc1c2c(nn1C)CSCc1cc(n(C)n1)CSc1cc(c3ccccc3c1)OCCCc1c(C(=O)O)n(C)c3c-2c(Cl)ccc13 [AZD5991]; conditions: max 1 µM
How it was run: as §1

[20] = compound: C[C@@H](c1ccc2nccn2c1)n1nnc2ncc(-c3cnn(C)c3)nc21 [Savolitinib]; conditions: max 1 µM
How it was run: as §1

[21] = compound: NC1(c2ccc(-c3nc4ccn5c(=O)[nH]nc5c4cc3-c3ccccc3)cc2)CCC1 [MK-2206]; conditions: max 10 µM
How it was run: as §1

[22] = compound: C[C@@H]1COCCN1C2=NC(=NC(=C2)C3(CC3)[S@](=N)(=O)C)C4=C5C=CNC5=NC=C4 [AZD6738]; conditions: max 10 µM
How it was run: as §1

[23] = compound: CN(C)CCCOc1ccc(-c2ccc3ncc4c(c3c2)n(C2CCOCC2)c(=O)n4C)cn1 [AZD0156]; conditions: max 3 µM
How it was run: as §1

[24] = compound: CC1=CN2[C@@H](C1)C=NC3=CC(=C(C=C3C2=O)OC)OCCCCCOC4=C(C=C5C(=C4)N=C[C@@H]6CC(=CN6C5=O)C)OC [SG3199]; conditions: max 0.001 µM
How it was run: as §1

[25] = compound: COc1cc(Nc2ncc3c(n2)-c2ccc(Cl)cc2C(c2c(F)cccc2OC)=NC3)ccc1C(=O)O [Alisertib]; conditions: max 10 µM
How it was run: as §1

[26] = compound: O=c1[nH]cc(F)c(=O)[nH]1 [5-Fluorouracil]; conditions: max 20 µM
How it was run: as §1

[27] = compound: Cc1nc(-c2cn3c(n2)-c2ccc(-c4cnn(C(C)(C)C(N)=O)c4)cc2OCC3)n(C(C)C)n1 [Taselisib]; conditions: max 10 µM
How it was run: as §1

[28] = compound: C[C@@H](Oc1cc(-c2cnn(C3CCNCC3)c2)cnc1N)c1c(Cl)ccc(F)c1Cl [Crizotinib]; conditions: max 10 µM
How it was run: as §1

[29] = compound: CS(=O)(=O)CCNCc1ccc(-c2ccc3ncnc(Nc4ccc(OCc5cccc(F)c5)c(Cl)c4)c3c2)o1 [Lapatinib]; conditions: max 10 µM
How it was run: as §1

[30] = compound: C1CC(C1)(C(=O)[O-])C(=O)[O-].N.N.[Pt+2] [Carboplatin]; conditions: max 10 µM
How it was run: as §1

[31] = compound: Cn1cnc2c(F)c(Nc3ccc(Br)cc3Cl)c(C(=O)NOCCO)cc21 [Selumetinib]; conditions: max 10 µM
How it was run: as §1

[32] = compound: CCN(CCO)CCCOc1ccc2c(Nc3cc(CC(=O)Nc4cccc(F)c4)[nH]n3)ncnc2c1 [AZD2811]; conditions: max 1 µM
How it was run: as §1

[33] = compound: CCc1c2c(nc3ccc(O)cc13)-c1cc3c(c(=O)n1C2)COC(=O)[C@]3(O)CC [SN-38]; conditions: max 0.3 µM
How it was run: as §1

[34] = compound: C[C@@H](Nc1cc(F)cc(F)c1)c1cc(C(=O)N(C)C)cc2c(=O)cc(N3CCOCC3)oc12 [AZD8186]
How it was run: as §1

[35] = compound: COc1cc2ncnc(Nc3ccc(F)c(Cl)c3)c2cc1OCCCN1CCOCC1 [Gefitinib]; conditions: max 10 µM
How it was run: as §1

[36] = compound: C1CN(CCC1(C(=O)N[C@@H](CCO)C2=CC=C(C=C2)Cl)N)C3=NC=NC4=C3C=CN4 [Capivasertib]; conditions: max 10 µM
How it was run: as §1

| Cell Line | IC50, cell viability 72 h [1] [µM] | IC50, cell viability 72 h [2] [nM] | IC50, cell viability 72 h [3] [µM] | IC50, cell viability 72 h [4] [µM] | IC50, cell viability 72 h [5] [nM] | IC50, cell viability 72 h [6] [nM] | IC50, cell viability 72 h [7] [nM] | IC50, cell viability 72 h [8] [nM] | IC50, cell viability 72 h [9] [µM] | IC50, cell viability 72 h [10] [µM] | IC50, cell viability 72 h [11] [µM] | IC50, cell viability 72 h [12] [nM] | IC50, cell viability 72 h [13] [nM] | IC50, cell viability 72 h [14] [nM] | IC50, cell viability 72 h [15] [µM] | IC50, cell viability 72 h [16] [nM] | IC50, cell viability 72 h [17] [nM] | IC50, cell viability 72 h [18] [nM] | IC50, cell viability 72 h [19] [nM] | IC50, cell viability 72 h [20] [nM] | IC50, cell viability 72 h [21] [µM] | IC50, cell viability 72 h [22] [µM] | IC50, cell viability 72 h [23] [nM] | IC50, cell viability 72 h [24] [nM] | IC50, cell viability 72 h [25] [µM] | IC50, cell viability 72 h [26] [µM] | IC50, cell viability 72 h [27] [nM] | IC50, cell viability 72 h [28] [µM] | IC50, cell viability 72 h [29] [µM] | IC50, cell viability 72 h [30] [µM] | IC50, cell viability 72 h [31] [µM] | IC50, cell viability 72 h [32] [nM] | IC50, cell viability 72 h [33] [nM] | IC50, cell viability 72 h ([34]; max 10 µM) [µM] | IC50, cell viability 72 h [35] [µM] | IC50, cell viability 72 h [36] [nM] | IC50, cell viability 72 h ([34]; max 3 µM) [µM] |
| --- | --- | --- | --- | --- | --- | --- | --- | --- | --- | --- | --- | --- | --- | --- | --- | --- | --- | --- | --- | --- | --- | --- | --- | --- | --- | --- | --- | --- | --- | --- | --- | --- | --- | --- | --- | --- | --- |
| KINGS-1 (Low Grade Glioma) | > 10 | > 300 | > 10 | > 10 | > 1000 | > 1000 | > 2000 | > 1000 | > 5 | > 10 | > 10 | > 1000 | > 3000 | > 1000 | > 10 | > 1000 | > 3000 | > 300 | > 1000 | > 1000 | > 10 | > 10 | > 3000 | > 1 | > 10 | > 20 | > 10000 | > 10 | > 10 | > 10 | > 10 | > 1000 | > 300 | > 10 | > 10 | – | – |
| LC4-1 (B-Lymphoblastic Leukemia) | 0.355 | > 300 | > 10 | 3.64 | 83.3 | > 1000 | > 2000 | 74.3 | 3.95 | > 10 | 4.23 | 2.54 | 269 | 11.8 | > 10 | 3.63 | 6.82 | 30.9 | 220 | > 1000 | > 10 | 1.28 | > 3000 | > 1 | 0.529 | 9.63 | > 10000 | 3 | 6.11 | > 10 | > 10 | 11.1 | 2.26 | > 10 | > 10 | – | – |
| NB7 (Neuroblastoma) | 6.52 | > 300 | > 10 | > 10 | > 1000 | > 1000 | > 2000 | > 1000 | > 5 | > 10 | > 10 | > 1000 | 963 | 72 | > 10 | > 1000 | 268 | 141 | > 1000 | > 1000 | > 10 | > 10 | > 3000 | > 1 | 6.06 | > 20 | > 10000 | > 10 | > 10 | > 10 | > 10 | > 1000 | 34.9 | > 10 | > 10 | – | – |
| NCI-N87 (Gastric Carcinoma) | 6.74 | > 300 | > 10 | > 10 | 423 | 404 | 1850 | > 1000 | > 5 | 4.23 | > 10 | > 1000 | 1690 | 75.5 | > 10 | > 1000 | 430 | 88.7 | > 1000 | > 1000 | 6.77 | 4.36 | > 3000 | > 1 | > 10 | > 20 | 218 | > 10 | 0.077 | > 10 | > 10 | > 1000 | 59.8 | > 10 | 1.96 | – | – |
| PF-382 (T-Lymphoblastic Leukemia) | – | > 300 | > 10 | – | 85.8 | > 1000 | 207 | 79 | – | – | 2.08 | 175 | 331 | 17.2 | > 10 | > 1000 | – | – | > 1000 | > 1000 | 1.5 | 3.22 | > 3000 | > 1 | 0.391 | – | 2780 | 4.07 | > 10 | – | > 10 | 34.4 | 3.65 | – | > 10 | 2250 | > 3 |
